Measured values taken from US12329158B2, “Large-scale methods of uniformly coating packaging surfaces with a volatile antimicrobial to preserve food freshness” (AGROFRESH INC., priority 2013, dated 2025).
Values after ≈ are worked out from the molar mass of the structure shown.

Experiments:
[1] = tested on: Botrytis cinerea; assay: Volatilization from treated clamshells onto inoculated agar plates (Example 2); assay type: cell-based
Procedure: An in vitro assay was used to evaluate the ability of Compound A to volatilize from a clamshell to control fungal pathogenic infection when applied to the clamshell by various application techniques. Multiple empty 1-lb PET clamshells (ProducePackaging.com, #036QT) were placed inside triplicate air-tight 36 L chamber (Fisher Scientific, Catalogue #08-642-23C) fitted with a bulkhead septum port (Swagelok, SS-401-61, Solon, OH).
Compound A headspace was permitted to equilibrate overnight at 21° C.
After spraying or painting, the clamshell was then permitted to dry for 5 minutes. After coating the clamshells with Compound A using various applications (i.e., sublimation, spraying, or painting), 10-cm Petri plates containing half strength Potato Dextrose Agar were inoculated with 1 μL of 1×10^5 spores/ml Botrytis cinerea spore suspension. The inoculated petri plates were then sealed with a breathable film (AeraSeal; P/N: B-100, Excel Scientific, Victorville, CA), and placed inside the treated clamshell.
(Series I). After incubation, plates were removed and cultures were evaluated for percent growth relative to a control based on measurement of fungal colony diameter (mm).
Meanwhile, freshly prepared inoculated plates were placed inside the clamshell for an additional three (3) days of incubation (Series 2). This process, where freshly prepared inoculated plates were placed inside the clamshell, was repeated twice more, to produce a 12 full day evaluation of 4 series of 3 days each.

[2] = tested on: Botrytis cinerea; assay: Volatile application to strawberries in clamshells, treated clamshell vs fruit transfer (Example 21); assay type: in vivo; conditions: 0.1 mg/L headspace
Procedure: Eight strawberries (per repetition, in triplicate) are placed in an industry standard 1-lb PET clamshell with the stem-end facing down.
Compound A is then mixed with acetone and 100 μL of the mixture is pipetted into a small glass tube. […] Compound A is then introduced into the cabinet containing the clamshell by using the sublimation device set at 180° C. to achieve a final headspace concentration of 0.1 mg/L and equilibrated at 1° C. for 0.5 or 1 hour.
After incubation, both clamshells are removed from the treatment chamber. One clamshell is undisturbed while the fruit from the second clamshell are immediately transferred into a new untreated clamshell. All clamshells are then held at 1° C. for 5 days and then evaluated during an additional 5 days at 21° C. During the 5 days at 21° C., the fruits are evaluated for gray mold severity (scale 0 to 4, with ≤1 indicating marketable fruit and 4 indicating ≥50% of fruit surface covered by pathogen). […] The treated clamshell produces marketable fruit up to 3 days with 0.5 hour treatment (0.1), whereas fruits in new clamshells are unmarketable (2.7). Similarly, the treated clamshell produces marketable fruit up to 5 days with 1 hour treatment (0.4), whereas fruits in new clamshells are unmarketable (1.6). Thus, treatments where berries remain in the treated clamshells have the best level of control due to the compound further volatilizing over time off of the clamshell surface.

[3] = tested on: Penicillium expansum; assay: Blue mold on apple, contact assay; assay type: in vivo
Procedure: Contact Assay: […] A 250 mL solution of each concentration is used to dip two inoculated apples, one minute per apple, performed in triplicate per rate. The dipped fruits are then placed back into the […] are then placed in a secondary container and incubated at 1° C. for 5 days. After incubation, fruits are evaluated for diameter (mm) of rot development (browning) up to 7 days at 21° C.

[4] = tested on: Epidermophyton floccus; assay: In vitro contact assay (Example 26); assay type: cell-based; conditions: Epidermophyton, 120 h, 5 days at 28 C, 100% control, read-out: MIC (mg/L) Epidermophyton floccus
Procedure: (§1) Half-strength Potato Dextrose Agar (PDA) is amended with a mixture of one of the test compounds in acetone or methanol to a final concentration of 50, 10, 2, 0.4 or 0.08 mg/L. A 3-mL volume of the amended media is added to each well of the microtiter plate. […] The plates are sealed with a clear film and incubated inverted for 5 days at 28° C.

[5] = tested on: Trichophyton mentagrophytes; assay: In vitro contact assay (Example 26); assay type: cell-based; conditions: Trichophyton mentagrophytes, 120 h, 5 days at 28 C, 100% control, read-out: MIC (mg/L) Trichophyton mentagrophytes
Procedure: as §1

[6] = tested on: Trichophyton rubrum; assay: In vitro contact assay (Example 26); assay type: cell-based; conditions: Trichophyton rubrum, 120 h, 5 days at 28 C, 100% control, read-out: MIC (mg/L) Trichophyton rubrum
Procedure: as §1

Q: For `OB1OCc2cc(F)ccc21` [Compound A, 5-fluoro-1,3-dihydro-1-hydroxy-2,1-benzoxaborole], which “Mycelial Growth Inhibition (%)” value ([1]; Paint, 0.2 mg/clamshell, Series 1 (0 to 3 days)) is on record?
A: 3.4%

Q: And the “Mycelial Growth Inhibition (%)” value ([1]; Paint, 1 mg/clamshell, Series 1 (0 to 3 days))?
A: 100.0%

Q: What about the “Mycelial Growth Inhibition (%)” value ([1]; Paint, 1 mg/clamshell, Series 2 (3 to 6 days)) of the same molecule?
A: 18.8%

Q: And the “Mycelial Growth Inhibition (%)” value ([1]; Paint, 5 mg/clamshell, Series 1 (0 to 3 days))?
A: 100.0%

Q: And the “Mycelial Growth Inhibition (%)” value ([1]; Paint, 5 mg/clamshell, Series 2 (3 to 6 days))?
A: 100.0%

Q: What about the “Mycelial Growth Inhibition (%)” value ([1]; Paint, 5 mg/clamshell, Series 3 (6 to 9 days)) of the same molecule?
A: 57.5%

Q: What about the “Mycelial Growth Inhibition (%)” value ([1]; Paint, 5 mg/clamshell, Series 4 (9 to 12 days)) of the same molecule?
A: 44.7%

Q: And the “Mycelial Growth Inhibition (%)” value ([1]; Spray, 0.2 mg/clamshell, Series 1 (0 to 3 days))?
A: 81.2%

Q: What about the “Mycelial Growth Inhibition (%)” value ([1]; Spray, 1 mg/clamshell, Series 1 (0 to 3 days)) of the same molecule?
A: 100.0%

Q: What about the “Mycelial Growth Inhibition (%)” value ([1]; Spray, 1 mg/clamshell, Series 2 (3 to 6 days)) of the same molecule?
A: 18.6%

Q: And the “Mycelial Growth Inhibition (%)” value ([1]; Spray, 1 mg/clamshell, Series 3 (6 to 9 days))?
A: 0.0%

Q: And the “Mycelial Growth Inhibition (%)” value ([1]; Spray, 5 mg/clamshell, Series 1 (0 to 3 days))?
A: 100.0%

Q: What about the “Mycelial Growth Inhibition (%)” value ([1]; Spray, 5 mg/clamshell, Series 2 (3 to 6 days)) of the same molecule?
A: 100.0%

Q: And the “Mycelial Growth Inhibition (%)” value ([1]; Spray, 5 mg/clamshell, Series 3 (6 to 9 days))?
A: 61.2%

Q: What about the “Mycelial Growth Inhibition (%)” value ([1]; Spray, 5 mg/clamshell, Series 4 (9 to 12 days)) of the same molecule?
A: 64.9%

Q: And the “Mycelial Growth Inhibition (%)” value ([1]; Sublimation, 0.2 mg/clamshell, Series 1 (0 to 3 days))?
A: 90.9%

Q: And the “Mycelial Growth Inhibition (%)” value ([1]; Sublimation, 0.2 mg/clamshell, Series 3 (6 to 9 days))?
A: 0.0%

Q: What about the “Mycelial Growth Inhibition (%)” value ([1]; Sublimation, 1 mg/clamshell, Series 1 (0 to 3 days)) of the same molecule?
A: 90.1%

Q: And the “Mycelial Growth Inhibition (%)” value ([1]; Sublimation, 5 mg/clamshell, Series 1 (0 to 3 days))?
A: 100.0%

Q: What about the “Mycelial Growth Inhibition (%)” value ([1]; Sublimation, 5 mg/clamshell, Series 2 (3 to 6 days)) of the same molecule?
A: 100.0%

Q: And the “Mycelial Growth Inhibition (%)” value ([1]; Sublimation, 5 mg/clamshell, Series 3 (6 to 9 days))?
A: 83.1%

Q: And the “Mycelial Growth Inhibition (%)” value ([1]; Sublimation, 5 mg/clamshell, Series 4 (9 to 12 days))?
A: 84.4%

Q: And the “Disease Severity (0 to 4)” value ([2]; Treated clamshell, treatment time 0.5 hour, Day 1)?
A: 0.0

Q: And the “Disease Severity (0 to 4)” value ([2]; Treated clamshell, treatment time 0.5 hour, Day 3)?
A: 0.1

Q: What about the “Disease Severity (0 to 4)” value ([2]; Treated clamshell, treatment time 0.5 hour, Day 5) of the same molecule?
A: 2.3

Q: And the “Disease Severity (0 to 4)” value ([2]; Treated clamshell, treatment time 1 hour, Day 1)?
A: 0.0

Q: And the “Disease Severity (0 to 4)” value ([2]; Treated clamshell, treatment time 1 hour, Day 3)?
A: 0.0

Q: What about the “Disease Severity (0 to 4)” value ([2]; Treated clamshell, treatment time 1 hour, Day 5) of the same molecule?
A: 0.4

Q: What about the “Disease Severity (0 to 4)” value ([2]; Untreated clamshell (fruit transfer), treatment time 0.5 hour, Day 1) of the same molecule?
A: 0.0

Q: What about the “Disease Severity (0 to 4)” value ([2]; Untreated clamshell (fruit transfer), treatment time 0.5 hour, Day 3) of the same molecule?
A: 2.7

Q: What about the “Disease Severity (0 to 4)” value ([2]; Untreated clamshell (fruit transfer), treatment time 0.5 hour, Day 5) of the same molecule?
A: 3.4

Q: And the “Disease Severity (0 to 4)” value ([2]; Untreated clamshell (fruit transfer), treatment time 1 hour, Day 1)?
A: 0.0

Q: And the “Disease Severity (0 to 4)” value ([2]; Untreated clamshell (fruit transfer), treatment time 1 hour, Day 3)?
A: 0.1

Q: And the “Disease Severity (0 to 4)” value ([2]; Untreated clamshell (fruit transfer), treatment time 1 hour, Day 5)?
A: 1.6

Q: What about the “Browning Rot (diameter; mm)” value ([3]; 2 mg/L, Day 0) of the same molecule?
A: 0.0 mm

Q: What about the “Browning Rot (diameter; mm)” value ([3]; 2 mg/L, Day 2) of the same molecule?
A: 3.7 mm

Q: And the “Browning Rot (diameter; mm)” value ([3]; 2 mg/L, Day 4)?
A: 15.5 mm

Q: What about the “Browning Rot (diameter; mm)” value ([3]; 2 mg/L, Day 7) of the same molecule?
A: 23.3 mm

Q: What about the “Browning Rot (diameter; mm)” value ([3]; 10 mg/L, Day 0) of the same molecule?
A: 0.0 mm

Q: And the “Browning Rot (diameter; mm)” value ([3]; 10 mg/L, Day 2)?
A: 2.2 mm

Q: What about the “Browning Rot (diameter; mm)” value ([3]; 10 mg/L, Day 4) of the same molecule?
A: 8.0 mm

Q: What about the “Browning Rot (diameter; mm)” value ([3]; 10 mg/L, Day 7) of the same molecule?
A: 20.2 mm

Q: What about the “Browning Rot (diameter; mm)” value ([3]; 50 mg/L, Day 0) of the same molecule?
A: 0.0 mm

Q: What about the “Browning Rot (diameter; mm)” value ([3]; 50 mg/L, Day 2) of the same molecule?
A: 0.7 mm

Q: And the “Browning Rot (diameter; mm)” value ([3]; 50 mg/L, Day 4)?
A: 5.7 mm

Q: And the “Browning Rot (diameter; mm)” value ([3]; 50 mg/L, Day 7)?
A: 15.0 mm

Q: What about the “Browning Rot (diameter; mm)” value ([3]; 250 mg/L, Day 0) of the same molecule?
A: 0.0 mm

Q: What about the “Browning Rot (diameter; mm)” value ([3]; 250 mg/L, Day 2) of the same molecule?
A: 0.0 mm

Q: And the “Browning Rot (diameter; mm)” value ([3]; 250 mg/L, Day 4)?
A: 4.3 mm

Q: What about the “Browning Rot (diameter; mm)” value ([3]; 250 mg/L, Day 7) of the same molecule?
A: 11.8 mm

Q: And the MIC [4]?
A: 2 mg/L (≈ 13.2 µM)

Q: And the MIC [5]?
A: 2 mg/L (≈ 13.2 µM)

Q: And the MIC [6]?
A: 2 mg/L (≈ 13.2 µM)
